From EP0300423A2, “Cephalosporin compound, method of its production and composition for prevention and treatment of bacterial infectious diseases” (Kyoto Pharmaceutical Industries, Ltd., priority 1987, dated 1989)
Values after ≈ are worked out from the molar mass of the structure shown. Structures can show the parent of a compound that is named as a salt.

How the values were obtained:
[1] = tested on: Staphylococcus aureus Smith; test: Antibacterial activity test, minimum inhibitory concentration; type: cell-based
Escherichia coli NIH = test: as above; type: cell-based
[2] = Acute toxicity test, oral administration; settings: mouse, in vivo, male ICR mice, 5 weeks in age, n = 3, orally administered as aqueous solution in distilled water, read-out: LDso value
Method: The acute toxicity of the orally administered cephalosporin derivative of this invention in mice was determined. The test is summarized as follows:
Subject animals: Male mice (ICR, at 5 weeks in age), n = 3
Method of administration: The cephalosporin derivative as obtained in Example 3 below was dissolved in distilled water, and this aqueous solution was orally administered.

Compound | MIC [1] [µg/mL] | MIC (Escherichia coli NIH) [µg/mL] | LD50 [2] [mg/kg]
O=C(O)C1=C(CSc2ncns2)CS[C@@H]2[C@H](NC(=O)[C@H](O)c3ccccc3)C(=O)N12 [Example 1, 7-D-(-)Mandelamido-3-(1,2,4-thiadiazol-5-yl)thiomethyl-3-cephem-4-carboxylic acid] | 0.2 (≈ 0.431 µM) | 0.39 (≈ 0.84 µM) | 
C[C@H](N)C(=O)O[C@@H](C(=O)N[C@@H]1C(=O)N2C(C(=O)OCOC(=O)C(C)(C)C)=C(CSc3ncns3)CS[C@H]12)c1ccccc1 [Example 3, Pivaloyloxymethyl 7-[D-O-(L-alanyl)mandelamido]-3-[(1,2,4-thiadiazol-5-yl)thiomethyl]-3-cephem-4-carboxylate hydrochloride] |  |  | < 5000
N[C@@H](C(=O)N[C@@H]1C(=O)N2C(C(=O)O)=C(Cl)CS[C@H]12)c1ccccc1 [Cefaclor, cefaclor, reference compound] | 1.56 (≈ 4.24 µM) | 0.78 (≈ 2.12 µM) | 
